We go through one molecule from patent US7138426B2, “Estrogen receptor modulators” (Merck & Co., Inc., priority 2003, dated 2006).

In this assay the test system is MCF-7 cells. Kind of assay: MCF-7 Estrogen Dependent Proliferation Assay. It counts as cell-based. The settings on record: Homo sapiens, MCF7, addition to Estrogen Depleted Media (EDM), read-out: EC50 of growth stimulation of MCF-7 cells. The source says: MCF-7 cells (ATCC #HTB-22) are human mammary gland adenocarcinoma cells that require estrogen for growth. The growth media (GM) for the MCF-7 cells is Minimum Essential Media (without phenol red) supplemented with fetal bovine serum (FBS) to 10%. The FBS serves as the sole source of estrogen and this GM supports the full growth of the cells and is used for the routine growth of the cell cultures. When MCF-7 cells are placed in a media in which 10% Charcoal-Dextran treated fetal bovine serum (CD-FBS) is substituted for FBS, the cells will cease to divide but will remain viable. […] The addition of estradiol to EDM stimulates the growth of the MCF-7 cells in a dose dependent manner with an EC50 of 2 pM. Growing MCF-7 cells are washed several times with EDM and the cultures then maintained in EDM for a minimum of 6 days in order to deplete the cells of endogenous estrogen. […] At this point, the culture supernatants are aspirated, the cells washed 2× with PBS, the wash solution aspirated and the protein content of each well determined. Each drug dilution is evaluated on a minimum of 5 wells and the range of dilution of the test compounds in the assay is 0.001 nM to 1000 nM. […] The assay is terminated at day 8–10 when the appropriate controls reach 80–90% confluency and the protein content of each well is determined as above.

For the molecule `C[C@]12CC[C@@H]3c4ccc(O)cc4CC[C@H]3[C@@H]1CC[C@@H]2O` [estradiol], the concentration giving a half-maximal response (EC50) is 2 pM.

A word on the EC50: it is the concentration at which the effect is half-maximal.
